From publication PMC11329504, “Identification of novel small molecule-based strategies of COL7A1 upregulation and readthrough activity for the treatment of recessive dystrophic epidermolysis bullosa” (Scientific Reports, 2024)
Each block holds one molecule with its values, some of them ahead of it.

How the values were obtained:
[1] = system: total (truncated + full length) C7 in RDEB_L1 cells; experiment: AlphaLISA quantification of total C7 in RDEB_L1 cells; type: cell-based, human; conditions: 20 ng/mL TGFß2; for EC50: Homo sapiens, total C7 AlphaLISA, 48 h, mean ± SD, read-out: Increase in C7 levels EC50(rel)
Description: (§1) The AlphaLISA assay was developed in-house by using the biotin-conjugated rabbit polyclonal antibody anti-C7 (LSBio LS-298147) and conjugating the acceptor beads (PerkinElmer 6772001) to a monoclonal anti-Collagen type VII antibody produced in mouse, clone LH7.2 (Thermo MA5-13,432). Formulation of the mAb clone LH7.2 was exchanged to PBS and concentrated 5 × by using Amicon® Ultra-0.5 centrifugal filters up to 1 mg/ml. The conjugation procedure was carried out according to the protocol provided by PerkinElmer.
(§2) For compound treatment in RDEB patient-derived transformed keratinocytes, 5,000 cells were plated in 20 µL of supplemented KGM media containing 20 ng/mL TGFβ2 (SIGMA GF113) without GA-1000 in 384-well cell culture plates (Greiner 781098). The day after, 5 µL of test compounds prepared 5 × in supplemented KGM without GA-1000 were added over cells and incubated for 48 h at 37 °C and 5% CO2. For compound treatment in HEK293^R578X, 10,000 cells were plated in 20 μL of DMEM (High Glucose, 2 mM L-Glutamine, sodium pyruvate, and FBS 10%) in 384-well cell culture plates (Greiner 781,098,). The day after, 5 μL of test compounds prepared 5 × in DMEM complete medium were added over cells and incubated for 48 h at 37 °C and 5% CO2.
(§3) After the treatment process, 2.5 µL of RIPA buffer 10 x (Abcam ab156034) were added over the […] of cells for 20 min at room temperature to obtain a complete cell lysis. Then, 2 μL of sample (i.e., cell lysate with supernatant) were transferred to the AlphaLISA plate (PerkinElmer 6,059,340) containing […] of antibodies mixture ([…] of acceptor Beads-Ab and […] of biotin-rAb) prepared in AlphaLISA buffer 1 x (PerkinElmer AL00F). The reaction was incubated for 90 min at room temperature. Finally, 10 μL of […] of donor beads (PerkinElmer 6760002,) were added to the reaction under subdued light, mixed gently, and incubated for 3 h at room temperature. AlphaLISA signal was detected with an Envision microplate reader (Perkin Elmer) using the following setting: Filter: AlphaScreen, Excitation time: 180 ms, Integration time: 300 ms.
(§4) Statistical analyses were performed using GraphPad Prism v. 7.04 (La Jolla, California). Results are shown as mean ± SD of experimental replicates. Dose–response curves to assess compound treatment effect were plotted in a four-parameter logistic model. Relative EC50, representing the total drug concentration producing a 50% effect, was calculated in the four-parameter logistic equation. Comparisons of collagen protein and mRNA expression in different experimental conditions were made using ANOVA, followed by a post hoc test. statistical significance was considered with p values < 0.05.

[2] = system: total C7 in HEK293^R578X cells; experiment: AlphaLISA quantification of total C7 in recombinant HEK293^R578X cells; type: cell-based, human; conditions: for Increase in C7 levels Emax, % vs baseline: at 100 µM
Description: as §1, §2, §3, §4

RDEB_L1 cells = experiment: RNAseq (HTPathwaySeq) transcriptomic profiling, GSEA; type: cell-based, human; conditions: 24 h, 20 ng/mL TGFβ2, compound 7 and 8 at the highest concentrations tested of 100 and 300 µM
Description: The […]®) analysis was conducted at […], Belgium) using samples provided by Almirall. A total of 376 cell lysate samples representing 4 biological replicates of 94 samples were provided to […] in four 96-well plates. On each 96-well plate, two empty wells were allocated to include […] reference samples. Samples from the same biological group were distributed over the different plates to not confound inter-plate variability with biological signal. […] The compounds were evaluated in RDEB_L1 cells in the presence of 20 ng/mL TGFβ2 to mimic RDEB physiology and in normal human keratinocytes with no TGFβ2 treatment. Cells were treated during 24 h. Controls for RDEB_L1 cells not treated with TGFβ2 and RDEB_L1 and NHK cells treated with DMSO in the absence of compounds were also included. The conditions of the assay were identical to those described for the Real-time quantitative RT-PCR (see above). For the […], over 460 M reads were generated for 376 samples of interest, resulting in about 1.22 M reads per sample on average. […] is based on a 3'-end library preparation method, and gene body read coverage is concentrated towards the 3'-end of the genes. For quality control, a selection of lysate samples was checked for gDNA contamination and RNA content using qPCR before library preparation. RNA samples were processed to generate RNA-sequencing libraries using […] procedure based on the QuantSeq (Lexogen) 3'-end library preparation workflow. The quality of a selection of samples was assessed with the 2100 Bioanalyzer instrument (Agilent). Libraries were quantified using qPCR and pooled for single-end sequencing on a NextSeq 500 (Illumina) according to […] standard operating procedure. Raw reads were mapped to the human genome (hg38) and gene expression was quantified based on the Ensembl transcriptome annotation (version 85) using […]. Raw counts were normalized using […]2 prior to differential gene expression analysis. For each cell line, samples were clustered based on log-transformed normalized counts using tSNE. A perplexity parameter of 35 and a maximum number of 1000 iterations were applied. Genes with more than 10 normalized counts in at least 3 samples were used as input. Analysis was run in R (v3.2) with a fixed seed. […] For each contrast, genes ranked by fold change were used as input. PCA was applied on the fold changes of each compound vs their associated vehicle using the 500 genes with the greatest variance. Arrows connect the different incremental dosages used on each compound to observe their differentiation patterns. Pathway enrichment and PCA were performed using R v.3.2. Pathway enrichment was analyzed with cluster profile package. The procedure followed for the cell treatments of RDEB-L1 and NHEK, was the same as that used in the RT-qPCR study. Cell lysis and sample preparation were conducted according to […] instructions: Plates of treated cells were centrifuged for 5 min at 600 g at 4 °C, and the medium was carefully removed to avoid disturbing the cells. Then, cells were washed in PBS, centrifuged and the PBS was removed again. […] After checking that cells were lysed, the samples were transferred to 96-well PCR plates, and then sealed and stored at -80 °C to be sent to […].

[3] = system: truncated and full-length C7 in RDEB_L1, RDEB_L5 and HEK293^R578X cells; experiment: Western blot detection of truncated and full-length C7; type: cell-based, human; conditions: RDEB_L1 and HEK293^R578X cells; 50 μM compound 7, 50 μM chuangxinmycin, 100 μM 3-methyl-chuangxinmycin
Description: For western blot, RDEB or normal human keratinocytes were lysed in protein extraction buffer (50 mM Tris–HCl [pH 7.5], 100 mM NaCl, 1% Nonidet P-40, and 4 mM EDTA) containing proteinase inhibitors cocktail (Complete Mini, EDTA free; Roche Diagnostics, Mannheim, Germany). Lysates were incubated for 30 min on ice and centrifuged at 15,000 g for 30 min at 4 °C. Supernatants were then collected and concentrated by ultrafiltration using Amicon Ultra columns (10 kDa; Millipore, Ireland). Protein concentrations were measured using the Bradford assay (Bio-Rad, Hercules, CA). For each sample, […] total protein was resolved on NuPAGE Novex 3%–8% Tris–Acetate gel electrophoresis (Invitrogen, Carlsbad, CA) and electrotransferred to nitrocellulose membranes (Invitrogen, Carlsbad, CA). For type VII collagen analysis, blots were probed with a monospecific polyclonal anti-C7 antibody (a generous gift from Dr. A. Nystrom, University of Freiburg). Invitrogen anti-MDH1 polyclonal antibody (PA550446, 1:1000) was used to detect MDH1. Standard antibodies against a reference protein were used as a loading control, as indicated. Visualization of the resulting signal was performed by incubating with horseradish peroxidase (HRP)- conjugated anti-rabbit antibody (Amersham, Burlington, MA) and West Pico Chemiluminescent Substrate (Pierce, Rockford, IL).

NHK cells = experiment: Cytotoxicity, ATP levels, normal human keratinocytes (NHK); type: cell-based; conditions: NHK cells, ATP levels, at 50 µM
Description: (§5) The viability of RDEB patient-derived cell lines or NHK was evaluated by measuring the ATP levels as an indirect readout of the potential cytotoxicity effect of compounds. Cells were plated and treated exactly with the same conditions as those followed in the AlphaLISA assay, described above. To measure ATP levels, cells were processed using the ATPlite™ 1step luminescence-based assay (PerkinElmer 6,016,731), following the manufacturer’s protocol. 25 μL of ATPlite™ reagent was added directly over cells and plates were covered with a sealing film and shaken for 25 min using a microtiter plate shaker. Luminescence was measured in a Luminoskan Ascent luminometer (Thermo Fisher Scientific). 10 μM of Staurosporine was used as a reference compound and control for the total cytotoxicity.

[4] = system: total (truncated + full length) C7 in RDEB_L5 cells; experiment: AlphaLISA quantification of total C7 in RDEB_L5 cells; type: cell-based, human
Description: as §1, §2, §3, §4

BZD = experiment: Selectivity panel (Eurofins): benzodiazepine receptor BZD; type: binding; conditions: Table 5
SAPK2α = target: T1, SAPK2α (Homo sapiens, UniProt Q16539); experiment: Selectivity panel (Eurofins): p38/SAPK2α kinase; type: biochemical; conditions: Table 5, read-out: Selectivity % inhibition, SAPK2α
T1 construct: Eurofins Pharma Discovery Services

A2A = target: T2, A2A (Homo sapiens, UniProt P29274); experiment: Selectivity panel (Eurofins): A2A adenosine receptor; type: binding; conditions: Table 5, read-out: Selectivity % inhibition, A2A
T2 construct: Eurofins Pharma Discovery Services

[5] = Cytotoxicity, ATP levels, normal human keratinocytes (NHK); type: cell-based; conditions: human, normal human keratinocytes (NHK); NHK cells, ATP levels; read-out: Cytotox. IC50
Description: as §5

T1 sequence (Q16539 whole entry): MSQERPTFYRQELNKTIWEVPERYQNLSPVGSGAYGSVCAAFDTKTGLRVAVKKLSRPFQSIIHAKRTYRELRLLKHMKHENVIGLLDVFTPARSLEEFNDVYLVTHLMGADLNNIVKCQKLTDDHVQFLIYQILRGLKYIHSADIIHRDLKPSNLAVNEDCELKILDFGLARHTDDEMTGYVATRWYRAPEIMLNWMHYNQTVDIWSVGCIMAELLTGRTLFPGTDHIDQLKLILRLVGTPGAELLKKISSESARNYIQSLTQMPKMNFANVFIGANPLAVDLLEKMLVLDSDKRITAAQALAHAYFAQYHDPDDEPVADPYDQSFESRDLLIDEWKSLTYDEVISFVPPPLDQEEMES
T2 sequence (P29274 whole entry): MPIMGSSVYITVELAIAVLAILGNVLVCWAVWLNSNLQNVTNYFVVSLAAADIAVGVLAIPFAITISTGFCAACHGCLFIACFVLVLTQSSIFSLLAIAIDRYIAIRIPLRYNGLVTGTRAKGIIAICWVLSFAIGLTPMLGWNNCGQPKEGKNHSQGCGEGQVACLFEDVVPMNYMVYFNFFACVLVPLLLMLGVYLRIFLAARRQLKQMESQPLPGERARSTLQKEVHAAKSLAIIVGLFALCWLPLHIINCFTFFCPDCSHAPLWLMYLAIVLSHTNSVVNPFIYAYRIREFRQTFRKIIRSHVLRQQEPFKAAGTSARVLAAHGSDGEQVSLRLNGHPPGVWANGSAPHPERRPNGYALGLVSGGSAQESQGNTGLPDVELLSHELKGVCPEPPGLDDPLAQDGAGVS

Selectivity % inhibition, BZD (BZD; at 3 μM): 0% | Selectivity % inhibition, BZD (BZD; at 10 μM): 0% | Selectivity % inhibition, BZD (BZD; at 30 μM): 9% | inhibition at 3 µM (SAPK2α; at 3 μM): 36% | inhibition at 10 µM (SAPK2α; at 10 μM): 162% | inhibition at 30 µM (SAPK2α; at 30 μM): 88% | inhibition at 3 µM (A2A; at 3 μM): 104% | inhibition at 10 µM (A2A; at 10 μM): 103% | inhibition at 30 µM (A2A; at 30 μM): 104%
Structure (SMILES): Nc1cnc(-c2ccncc2)c(-c2cccc(F)c2)n1 [Compound 10]
Increase in C7 levels Emax, % vs baseline ([1]; Table 5 SAR, at 50 μM): 2.1 ± 16 at 50 % vs baseline

EC50 ([1]; RDEB_L1 cells): 40 ± 13 µM
Structure (SMILES): C#Cc1nc(-c2ccncc2)c(-c2ccco2)nc1N [Compound 8]
Increase in C7 levels Emax, % vs baseline ([1]; RDEB_L1 cells, at 100 µM): 86 ± 13.9 at 100 % vs baseline | IC50 [5]: 31 ± 4.1 µM | Increase in C7 levels Emax, % vs baseline [2]: 10± 13 at 100 % vs baseline | modulation of GO terms related to NMD, readthrough, translation and unfolded protein response (RDEB_L1 cells): modulating genes specifically related to cytoplasmic translation and the ribosome

The next lines start with the molecule.

Structure (SMILES): CC1(C)c2c[nH]c3cccc(c23)S[C@H]1C(=O)O [3-methyl chuangxinmycin, 3-methyl-chuangxinmycin]
EC50 ([1]; RDEB_L1 cells): 42 µM | Increase in C7 levels Emax, % vs baseline ([1]; RDEB_L1 cells, at 100 µM): 105 ± 13 at 100 % vs baseline | EC50 ([2]; Homo sapiens, total C7 AlphaLISA, 48 h, relative EC50, mean ± SD, read-out: Increase in C7 levels EC50): 4.6 µM | Increase in C7 levels Emax, % vs baseline [2]: 58 at 100 % vs baseline | modulation of GO terms related to NMD, readthrough, translation and unfolded protein response (RDEB_L1 cells): Neither compound 1 nor chuangxinmycin nor 3-methyl-chuangxinmycin showed any impact on these pathways | C7 products induced, western blot [3]: partially upregulated full-length C7

Structure (SMILES): C[C@H]1c2c[nH]c3cccc(c23)S[C@H]1C(=O)O [Chuangxinmycin, chuangxinmycin]
Increase in C7 levels Emax, % vs baseline ([1]; RDEB_L1 cells, at 50 µM): 22 ± 3 at 50 % vs baseline | modulation of GO terms related to NMD, readthrough, translation and unfolded protein response (RDEB_L1 cells): Neither compound 1 nor chuangxinmycin nor 3-methyl-chuangxinmycin showed any impact on these pathways | C7 products induced, western blot [3]: partially upregulated full-length C7

Structure (SMILES): Nc1ncc(-c2ccc3cnn(CCO)c3c2)nc1C(=O)NC1C2CC3CC1CC(O)(C3)C2 (centres unmarked) [Compound 3]
EC50 ([1]; RDEB_L1 cells): 1.9 ± 0.12 µM | Increase in C7 levels Emax, % vs baseline ([1]; RDEB_L1 cells, at 3.1 µM): 2083 ± 29 at 3.1 % vs baseline | Cytotox. % inhibition of viability (NHK cells): 58% ± 13 at 50 (n=2) | EC50 ([4]; Homo sapiens, total C7 AlphaLISA, 48 h, 20 ng/mL TGFß2, relative EC50, mean ± SD, read-out: Increase in C7 levels EC50): 3.1 ± 0.008 µM | Increase in C7 levels Emax, % vs baseline ([4]; at 1.25 µM, 20 ng/mL TGFß2): 717 ± 229 at 1.25 % vs baseline
